Laboratory results taken from US10632195B2, “Pharmaceutical device for electric-field assisted administration of Tapentadol and method of administering Tapentadol with same” (Gruenenthal GmbH, priority 2012, dated 2020).
Several values for one entry are separate records, joined by “and”; a condition that tells them apart may be missing. Identical values can stand only once. Counter-ions that a name gives are not always drawn.

Legend:
[1] = pH of the donor solution (Tapentadol hydrochloride 100 mM in water) before and after iontophoresis; format: physicochemical
Description: (§1) The anode was placed in the donor chamber; the donor solution was 3 ml of Tapentadol hydrochloride (100 mM, i.e. 25.78 mg/ml of Tapentadol hydrochloride, 22.13 mg/ml of base) in water. The cathode was placed in the receptor chamber, which contained 3 ml of phosphate-buffered saline, pH 7.4. Both chambers were stirred by magnets.
(§2) Voltages were as expected for 6 cells in series (range was 6 to 28 volts). The pH of the donor solution was measured after termination of 24 hours of iontophoresis, and ranged from 6.47 to 6.99. The pH of drug in the donor prior to commencing the experiment was 5.07 (5.34 for the 8 hour iontophoresis).

[2] = iontophoretic transdermal delivery of Tapentadol hydrochloride, 24 hours of iontophoresis (example 1b), side-bi-side diffusion cells, constant current 0.25 mA (0.4 mA/cm2), donor 100 mM in water; format: in vitro ADME, pig; settings: for drug flux across the skin, Mean ± SD / drug flux across the skin, as tapentadol base, Mean ± SD / cumulative, iontophoretic delivery across the skin, Mean ± SD / cumulative, iontophoretic delivery across the skin, as tapentadol base, Mean ± SD: n=6; for drug flux across the skin, Mean ± SD / drug flux across the skin, as tapentadol base, Mean ± SD / cumulative, iontophoretic delivery across the skin, Mean ± SD / cumulative, iontophoretic delivery across the skin, as tapentadol base, Mean ± SD / drug flux across the skin / cumulative, iontophoretic delivery across the skin: patch area 0.64 cm^2; for drug flux across the skin / cumulative, iontophoretic delivery across the skin: single cells 1-6, hydrochloride; for cumulative, iontophoretic delivery across the skin: listed as Tapentadol HCl
Description: Determination of the rate of iontophoretic transdermal delivery of Tapentadol hydrochloride for a period of 24 hours of iontophoresis
Tapentadol hydrochloride (batch no. A0012) was employed. The components of the phosphate buffered saline (PBS) and the mobile phase used were from Sigma, UK. The pig skin was obtained from a local farm, washed with water, excess hair was carefully trimmed with scissors, and the skin was dermatomed using a Zimmer dermatome set at a nominal thickness of 750 μm. The skin was then stored at −20° C.
The drug was delivered from the anode, using side-bi-side (horizontal) glass diffusion cells (n=6) supplied by Permegear, USA. The porcine skin membrane was excised from the dorsal surface.
Electrodes were prepared in-house and were made of silver/silver chloride. To pass current for 24 hours in this set-up, it was necessary for the donor compartment to contain 76 mM chloride ions.
as §1
Current was applied for a total of 8 or 24 hours, respectively.
The receptor solution was sampled and assayed at 0.5, 1, 2, 3, 4, 5, 6, 7, 8 (example 1a) and optionally 24 hours (example 1b) post-initiation of the current. During the 8 hour experiment (example 1a), at 0.5, 1, 2, and 3 hours, 1 ml of receptor solution was removed and replaced with fresh PBS. As it was clear that the amount of Tapentadol in the receptor solution was sufficient for quantitation by HPLC, at the subsequent sampling times of 4, 5, 6, 7 and 8 hours, the entire receptor solution (3 ml) was removed and replaced with fresh PBS, to ensure sink conditions in the receptor. During the 24 hour experiment (example 1b), the entire receptor solution (3 ml) was removed and replaced with fresh PBS at every sampling point.
The concentrations of Tapentadol hydrochloride in the receptor chamber samples were determined by HPLC. A mobile phase consisting of 300:700:1 methanol:water:phosphoric acid was pumped (1 ml/min) through a Acclaim RP-18 (4×150 mm) reverse-phase column (Dionex, UK) at 35° C. Tapentadol concentrations were quantified via their UV absorbance at 215 nm using a calibration curve diluted in PBS at pH 7.4. Injection volume was 20 μl and the retention time for Tapentadol hydrochloride was 12 minutes and the total run time was 16 minutes.
A Tapentadol-free “blank” diffusion cell (donor was saline only) was also prepared and the receptor solution was analysed after 8 hours to confirm no peaks from any component of the skin co-eluted with the Tapentadol hydrochloride.
as §2

[3] = 24 hours iontophoresis, as tapentadol hydrochloride

CC[C@@H](c1cccc(O)c1)[C@@H](C)CN(C)C [Tapentadol hydrochloride]
pH of drug in the donor ([1]; prior to commencing the experiment (8 hour iontophoresis)): 5.34
pH of drug in the donor ([1]; prior to commencing the experiment (24 hour iontophoresis)): 5.07
drug flux across the skin, Mean ± SD ([2]; 0.5 h, iontophoresis): 3 ± 2 µg/h
drug flux across the skin, as tapentadol base, Mean ± SD ([2]; 0.5 h, iontophoresis): 3 ± 2 µg/h
cumulative, iontophoretic delivery across the skin, Mean ± SD ([2]; 0.5 h): 2 ± 1 µg
cumulative, iontophoretic delivery across the skin, as tapentadol base, Mean ± SD ([2]; 0.5 h): 1 ± 1 µg
drug flux across the skin, Mean ± SD ([2]; 1 h, iontophoresis): 48 ± 22 µg/h
drug flux across the skin, as tapentadol base, Mean ± SD ([2]; 1 h, iontophoresis): 41 ± 19 µg/h
cumulative, iontophoretic delivery across the skin, Mean ± SD ([2]; 1 h): 26 ± 12 µg
cumulative, iontophoretic delivery across the skin, as tapentadol base, Mean ± SD ([2]; 1 h): 22 ± 10 µg
drug flux across the skin, Mean ± SD ([2]; 1.5 h, iontophoresis): 96 ± 22 µg/h
drug flux across the skin, as tapentadol base, Mean ± SD ([2]; 1.5 h, iontophoresis): 82 ± 19 µg/h
cumulative, iontophoretic delivery across the skin, Mean ± SD ([2]; 1.5 h): 74 ± 22 µg
cumulative, iontophoretic delivery across the skin, as tapentadol base, Mean ± SD ([2]; 1.5 h): 63 ± 19 µg
drug flux across the skin, Mean ± SD ([2]; 2 h, iontophoresis): 144 ± 38 µg/h
drug flux across the skin, as tapentadol base, Mean ± SD ([2]; 2 h, iontophoresis): 124 ± 33 µg/h
cumulative, iontophoretic delivery across the skin, Mean ± SD ([2]; 2 h): 146 ± 41 µg
cumulative, iontophoretic delivery across the skin, as tapentadol base, Mean ± SD ([2]; 2 h): 125 ± 35 µg
drug flux across the skin, Mean ± SD ([2]; 3 h, iontophoresis): 176 ± 32 µg/h
drug flux across the skin, as tapentadol base, Mean ± SD ([2]; 3 h, iontophoresis): 151 ± 28 µg/h
drug flux across the skin ([2]; 3 h, iontophoresis): 128 µg/h and 147 µg/h and 203 µg/h and 208 µg/h and 181 µg/h and 190 µg/h
cumulative, iontophoretic delivery across the skin, Mean ± SD ([2]; 3 h): 322 ± 72 µg
cumulative, iontophoretic delivery across the skin, as tapentadol base, Mean ± SD ([2]; 3 h): 276 ± 61 µg
cumulative, iontophoretic delivery across the skin ([2]; 3 h): 224 µg and 259 µg and 364 µg and 419 µg and 315 µg and 348 µg
drug flux across the skin, Mean ± SD ([2]; 4 h, iontophoresis): 232 ± 27 µg/h
drug flux across the skin, as tapentadol base, Mean ± SD ([2]; 4 h, iontophoresis): 199 ± 23 µg/h
drug flux across the skin ([2]; 4 h, iontophoresis): 184 µg/h and 217 µg/h and 238 µg/h and 257 µg/h and 248 µg/h
cumulative, iontophoretic delivery across the skin, Mean ± SD ([2]; 4 h): 554 ± 96 µg
cumulative, iontophoretic delivery across the skin, as tapentadol base, Mean ± SD ([2]; 4 h): 475 ± 83 µg
cumulative, iontophoretic delivery across the skin ([2]; 4 h): 408 µg and 476 µg and 602 µg and 676 µg and 563 µg and 596 µg
drug flux across the skin, Mean ± SD ([2]; 5 h, iontophoresis): 270 ± 22 µg/h
drug flux across the skin, as tapentadol base, Mean ± SD ([2]; 5 h, iontophoresis): 232 ± 19 µg/h
drug flux across the skin ([2]; 5 h, iontophoresis): 227 µg/h and 271 µg/h and 283 µg/h and 285 µg/h and 284 µg/h and 272 µg/h
cumulative, iontophoretic delivery across the skin, Mean ± SD ([2]; 5 h): 824 ± 116 µg
cumulative, iontophoretic delivery across the skin, as tapentadol base, Mean ± SD ([2]; 5 h): 707 ± 99 µg
cumulative, iontophoretic delivery across the skin ([2]; 5 h): 635 µg and 747 µg and 885 µg and 962 µg and 847 µg and 867 µg
drug flux across the skin, Mean ± SD ([2]; 6 h, iontophoresis): 277 ± 18 µg/h
drug flux across the skin, as tapentadol base, Mean ± SD ([2]; 6 h, iontophoresis): 238 ± 16 µg/h
drug flux across the skin ([2]; 6 h, iontophoresis): 243 µg/h and 282 µg/h and 298 µg/h and 277 µg/h and 286 µg/h and 274 µg/h
cumulative, iontophoretic delivery across the skin, Mean ± SD ([2]; 6 h): 1101 ± 129 µg
cumulative, iontophoretic delivery across the skin, as tapentadol base, Mean ± SD ([2]; 6 h): 945 ± 111 µg
cumulative, iontophoretic delivery across the skin ([2]; 6 h): 878 µg and 1029 µg and 1183 µg and 1239 µg and 1133 µg and 1142 µg
drug flux across the skin, Mean ± SD ([2]; 7 h, iontophoresis): 282 ± 18 µg/h
drug flux across the skin, as tapentadol base, Mean ± SD ([2]; 7 h, iontophoresis): 242 ± 15 µg/h
drug flux across the skin ([2]; 7 h, iontophoresis): 248 µg/h and 292 µg/h and 282 µg/h and 295 µg/h
cumulative, iontophoretic delivery across the skin, Mean ± SD ([2]; 7 h): 1382 ± 144 µg
cumulative, iontophoretic delivery across the skin, as tapentadol base, Mean ± SD ([2]; 7 h): 1187 ± 123 µg
cumulative, iontophoretic delivery across the skin ([2]; 7 h): 1125 µg and 1322 µg and 1465 µg and 1534 µg and 1425 µg and 1424 µg
drug flux across the skin, Mean ± SD ([2]; 8 h, iontophoresis): 288 ± 30 µg/h
drug flux across the skin, as tapentadol base, Mean ± SD ([2]; 8 h, iontophoresis): 247 ± 26 µg/h
drug flux across the skin ([2]; 8 h, iontophoresis): 254 µg/h and 331 µg/h and 256 µg/h and 302 µg/h and 282 µg/h
cumulative, iontophoretic delivery across the skin, Mean ± SD ([2]; 8 h): 1671 ± 155 µg
cumulative, iontophoretic delivery across the skin, as tapentadol base, Mean ± SD ([2]; 8 h): 1434 ± 133 µg
cumulative, iontophoretic delivery across the skin ([2]; 8 h): 1380 µg and 1653 µg and 1721 µg and 1836 µg and 1727 µg and 1706 µg
drug flux across the skin, Mean ± SD ([2]; 24 h, iontophoresis): 309 ± 26 µg/h
drug flux across the skin, as tapentadol base, Mean ± SD ([2]; 24 h, iontophoresis): 265 ± 23 µg/h
drug flux across the skin ([2]; 24 h, iontophoresis): 300 µg/h and 342 µg/h and 330 µg/h and 323 µg/h and 282 µg/h and 277 µg/h
cumulative, iontophoretic delivery across the skin, Mean ± SD ([2]; 24 h): 6616 ± 468 µg
cumulative, iontophoretic delivery across the skin, as tapentadol base, Mean ± SD ([2]; 24 h): 5680 ± 402 µg
cumulative, iontophoretic delivery across the skin ([2]; 24 h): 6185 µg and 7120 µg and 7001 µg and 7000 µg and 6247 µg and 6145 µg
cumulative amount delivered across a 0.64 cm2 area of skin, as tapentadol base ([2]; 24 hours iontophoresis): 5.7 mg
cumulative amount delivered per 1 cm2, as tapentadol base ([2]; 24 hours iontophoresis): 8.9 mg
cumulative amount delivered across a 0.64 cm2 area of skin [2, 3]: 6.6 mg
cumulative amount delivered per 1 cm2 [2, 3]: 10.3 mg
time by which steady-state flux appears to have been reached ([2]; example 1b, iontophoresis): 5 to 6 h
difference between flux during iontophoresis and flux due to passive diffusion ([2]; iontophoresis vs comparative example 1b): 30 fold
